Results reported in ChEMBL document CHEMBL5226283, “Reactive Oxygen Species (ROS)-Responsive Prodrugs, Probes, and Theranostic Prodrugs: Applications in the ROS-Related Diseases” (J Med Chem, 2021).

Assays:
HeLa [1] = test: Antiproliferative activity against human HeLa cells assessed as cell growth inhibition at 12.5 uM relative to control; type: functional; design: scale not given: the % may be the effect or the level left
MIA PaCa-2 = test: Antiproliferative activity against human MIA PaCa-2 cells assessed as cell growth inhibition; type: functional, cell-based
[2] = target: Matrix metalloproteinase-9 (Homo sapiens, UniProt P14780); test: Inhibition of MMP9 (unknown origin)
WI-38 = test: Cytotoxicity against human WI-38 cells assessed as cell growth inhibition at 5 uM relative to control; type: functional; design: scale not given: the % may be the effect or the level left
KB = test: Antiproliferative activity against human KB cells assessed as cell growth inhibition at 5 uM relative to control; type: functional; design: scale not given: the % may be the effect or the level left
[3] = Permeability of compound by PAMPA assay; type: ADME; conditions: read-out: permeability
[4] = Oral bioavailability in C57BL/6 mouse; type: ADME, organism-based; conditions: in vivo
Keap1/Nrf2 = Keap1/Nrf2 (Homo sapiens, UniProt Q14145+Q16236); test: Inhibition of Keap1-Nrf2 (unknown origin); type: protein assay
[5] = Activation of Nrf2-ARE pathway in LPS-induced human HepG2-ARE-C8 cells; type: cell-based
SN12C = test: Antiproliferative activity against human SN12C cells assessed as cell growth inhibition at 10 uM by SRB assay; type: functional; design: scale not given: the % may be the effect or the level left
DNA [6] = test: Induction of ROS-mediated DNA (unknown origin) assessed as efficiency of ICL formation preincubated with compounds followed by H2O2 addition relative to control; type: functional
CAKI-1 [7] = test: Antiproliferative activity against human CAKI-1 cells assessed as cell growth inhibition at 10 uM by SRB assay; type: functional; design: scale not given: the % may be the effect or the level left
SR [8] = test: Antiproliferative activity against human SR cells assessed as cell growth inhibition at 10 uM by SRB assay; type: functional; design: scale not given: the % may be the effect or the level left
NCI-H460 [9] = test: Antiproliferative activity against human NCI-H460 cells assessed as cell growth inhibition at 10 uM by SRB assay; type: functional; design: scale not given: the % may be the effect or the level left
DNA [10] = test: Induction of ROS-mediated DNA (unknown origin) ICL formation by measuring rate constant preincubated with compounds followed by H2O2 addition; type: functional
A549 [11] = test: Antitumor activity against human A549 tumor spheroid cells assessed as reduction in size of tumor spheroid measured after 3 days by fluorescence microscopic analysis relative to control; type: functional; design: scale not given: the % may be the effect or the level left; conditions: time 3 day
NCI-H23 = test: Antiproliferative activity against human NCI-H23 cells assessed as cell growth inhibition; type: functional
UACC-257 = test: Antiproliferative activity against human UACC-257 cells assessed as cell growth inhibition; type: functional
SF-295 = test: Antiproliferative activity against human SF-295 cells assessed as cell growth inhibition; type: functional
HOP-92 = test: Antiproliferative activity against human HOP-92 cells assessed as cell growth inhibition; type: functional
CCRF-CEM = test: Antiproliferative activity against human CCRF-CEM cells assessed as cell growth inhibition; type: functional
NCI-H460 [12] = test: Antiproliferative activity against human NCI-H460 cells assessed as cell growth inhibition; type: functional
ACHN = test: Antiproliferative activity against human ACHN cells assessed as cell growth inhibition; type: functional
MCF7 = test: Antiproliferative activity against human MCF7 cells assessed as cell growth inhibition; type: functional
DU-145 = test: Antiproliferative activity against human DU-145 cells assessed as cell growth inhibition; type: functional
UACC-62 = test: Antiproliferative activity against human UACC-62 cells assessed as cell growth inhibition; type: functional
M14 = test: Antiproliferative activity against human M14 cells assessed as cell growth inhibition; type: functional
A549 [13] = test: Antiproliferative activity against human A549 cells assessed as cell growth inhibition; type: functional, cell-based
SF-539 = test: Antiproliferative activity against human SF-539 cells assessed as cell growth inhibition; type: functional
SF-268 = test: Antiproliferative activity against human SF-268 cells assessed as cell growth inhibition; type: functional
SNB-75 = test: Antiproliferative activity against human SNB-75 cells assessed as cell growth inhibition; type: functional
RXF 393 = test: Antiproliferative activity against human RXF 393 cells assessed as cell growth inhibition; type: functional
CAKI-1 [14] = test: Antiproliferative activity against human CAKI-1 cells assessed as cell growth inhibition; type: functional
786-0 = test: Antiproliferative activity against human 786-0 cells assessed as cell growth inhibition; type: functional
MOLT-4 = test: Antiproliferative activity against human MOLT-4 cells assessed as cell growth inhibition; type: functional
UO-31 = test: Antiproliferative activity against human UO-31 cells assessed as cell growth inhibition; type: functional
SR [15] = test: Antiproliferative activity against human SR cells assessed as cell growth inhibition; type: functional
NCI-H522 = test: Antiproliferative activity against human NCI-H522 cells assessed as cell growth inhibition; type: functional
LOX IMVI = test: Antiproliferative activity against human LOX IMVI cells assessed as cell growth inhibition; type: functional
MDA-MB-468 = test: Antiproliferative activity against human MDA-MB-468 cells assessed as cell growth inhibition; type: functional
HL-60(TB) = test: Antiproliferative activity against human HL-60(TB) cells assessed as cell growth inhibition; type: functional
HeLa [16] = test: Antiproliferative activity against human HeLa cells assessed as cell growth inhibition at 2 uM relative to control; type: functional; design: scale not given: the % may be the effect or the level left
[17] = Cytotoxicity against human HEK293T cells assessed as cell growth inhibition
4T1 = test: Antiproliferative activity against mouse 4T1 cells assessed as cell growth inhibition; type: functional, cell-based

Sequence of Matrix metalloproteinase-9 (P14780 whole entry): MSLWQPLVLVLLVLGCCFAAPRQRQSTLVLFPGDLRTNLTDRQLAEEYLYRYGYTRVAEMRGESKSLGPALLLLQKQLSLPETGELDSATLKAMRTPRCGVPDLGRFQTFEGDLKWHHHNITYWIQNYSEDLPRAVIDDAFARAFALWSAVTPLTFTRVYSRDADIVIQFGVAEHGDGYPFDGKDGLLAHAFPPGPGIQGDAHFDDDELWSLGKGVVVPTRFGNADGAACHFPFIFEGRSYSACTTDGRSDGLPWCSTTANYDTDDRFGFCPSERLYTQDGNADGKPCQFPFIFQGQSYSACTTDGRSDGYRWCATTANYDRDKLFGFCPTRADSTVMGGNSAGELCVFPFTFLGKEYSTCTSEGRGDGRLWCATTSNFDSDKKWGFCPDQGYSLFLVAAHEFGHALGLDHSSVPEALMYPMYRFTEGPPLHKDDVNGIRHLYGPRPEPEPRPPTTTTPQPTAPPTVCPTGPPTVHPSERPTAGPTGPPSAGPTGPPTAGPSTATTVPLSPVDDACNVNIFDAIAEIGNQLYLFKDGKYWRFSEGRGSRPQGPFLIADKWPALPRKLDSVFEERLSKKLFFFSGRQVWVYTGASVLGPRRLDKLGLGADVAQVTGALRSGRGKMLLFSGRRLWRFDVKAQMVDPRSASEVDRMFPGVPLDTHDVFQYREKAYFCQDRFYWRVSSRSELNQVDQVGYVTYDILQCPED
Sequence of Keap1/Nrf2 (Q16236 whole entry): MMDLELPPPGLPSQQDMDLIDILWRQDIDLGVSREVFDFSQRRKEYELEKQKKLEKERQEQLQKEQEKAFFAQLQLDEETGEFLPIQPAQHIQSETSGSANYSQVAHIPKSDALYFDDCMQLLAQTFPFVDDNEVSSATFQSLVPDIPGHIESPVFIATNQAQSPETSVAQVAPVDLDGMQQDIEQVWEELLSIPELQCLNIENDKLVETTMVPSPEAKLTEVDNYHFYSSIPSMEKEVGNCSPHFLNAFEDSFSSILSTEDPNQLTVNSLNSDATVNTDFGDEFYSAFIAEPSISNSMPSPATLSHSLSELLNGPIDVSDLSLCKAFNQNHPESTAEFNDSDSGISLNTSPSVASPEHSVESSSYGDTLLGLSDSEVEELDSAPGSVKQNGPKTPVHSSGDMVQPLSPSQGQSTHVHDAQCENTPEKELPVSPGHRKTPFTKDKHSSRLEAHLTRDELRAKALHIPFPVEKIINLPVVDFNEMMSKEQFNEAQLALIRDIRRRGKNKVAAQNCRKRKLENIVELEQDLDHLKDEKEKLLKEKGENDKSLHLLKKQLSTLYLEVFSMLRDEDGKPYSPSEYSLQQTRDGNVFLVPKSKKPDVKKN
Sequence of Keap1/Nrf2 (Q14145 whole entry): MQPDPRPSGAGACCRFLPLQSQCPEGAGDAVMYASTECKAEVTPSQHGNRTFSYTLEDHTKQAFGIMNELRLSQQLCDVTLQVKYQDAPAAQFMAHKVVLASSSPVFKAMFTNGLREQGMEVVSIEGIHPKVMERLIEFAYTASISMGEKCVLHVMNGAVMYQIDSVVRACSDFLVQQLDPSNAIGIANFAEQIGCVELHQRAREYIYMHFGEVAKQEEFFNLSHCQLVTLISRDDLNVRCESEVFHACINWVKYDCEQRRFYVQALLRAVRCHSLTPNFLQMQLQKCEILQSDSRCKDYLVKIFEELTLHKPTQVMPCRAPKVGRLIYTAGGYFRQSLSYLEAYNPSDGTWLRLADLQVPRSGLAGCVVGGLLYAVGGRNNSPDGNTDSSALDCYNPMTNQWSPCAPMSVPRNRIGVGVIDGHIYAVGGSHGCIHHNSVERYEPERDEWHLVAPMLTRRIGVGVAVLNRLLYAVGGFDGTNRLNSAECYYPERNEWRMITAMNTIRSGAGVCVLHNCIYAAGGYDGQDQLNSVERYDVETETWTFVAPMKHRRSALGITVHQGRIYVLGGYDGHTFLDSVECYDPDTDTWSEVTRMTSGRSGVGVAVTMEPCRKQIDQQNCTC

COC(=O)[C@]1([Se]c2ccccc2)C[C@]2(C)C(=O)[C@]1(C)C(c1ccccc1)=C2c1ccccc1
Activity (HeLa [1]): <=80%

COc1cccc2c1C(=O)c1c(O)c3c(c(O)c1C2=O)C[C@@](O)(C(=O)CO)C[C@@H]3O[C@H]1C[C@H](NC(=O)OCc2ccc(B3OC(C)(C)C(C)(C)O3)cc2)[C@H](O)[C@H](C)O1
IC50 (MIA PaCa-2): 0.3 µM

CC1(C)OB(c2ccc(COc3c(C(=O)NCc4ccc(-c5ccccc5)cc4)occc3=O)cc2)OC1(C)C
IC50 [2]: > 1000 µM

CCN(CC)c1ccc2c(c1)Oc1cc(OCc3ccc(B4OC(C)(C)C(C)(C)O4)cc3)c(COC(=O)OC3(CC)C(=O)OCc4c3cc3n(c4=O)Cc4cc5ccccc5nc4-3)cc1C21c2ccccc2CN1CCNC(=O)CCC(NC(=O)c1ccc(NCc2cnc3[nH]c(N)nc(=O)c3n2)cc1)C(=O)O (stereo not drawn)
Activity (WI-38): 100% | Activity (KB): 70%

CC1(C)OB(c2ccc(COn3c(C(=O)NCc4ccc(-c5ccccc5)cc4)cccc3=O)cc2)OC1(C)C
IC50 [2]: > 1000 µM | Papp [3]: 6.35 ×10⁻⁶ cm/s | bioavailability [4]: 68.1% | IC50 (Keap1/Nrf2): 0.0967 µM | EC50 [5]: 0.32 µM

CC1(C)OB(c2ccc(C[N+](C)(CCCl)CCCl)cc2)OC1(C)C.[Br-]
Activity (SN12C): 57% | Activity (DNA [6]): 43% | Activity (CAKI-1 [7]): 66% | Activity (SR [8]): 90% | Activity (NCI-H460 [9]): 85% | K (DNA [10]): 4.6 10^-5/s

O=C(CCCCCCC(=O)Nc1ccccc1)NO [VORINOSTAT]
Activity (A549 [11]): 50%

CC1(C)OB(c2ccc(COC(=O)Nc3ccc(N(CCCl)CCCl)cc3)cc2)OC1(C)C
GI50 (NCI-H23): < 1 µM | GI50 (UACC-257): < 1 µM | GI50 (SF-295): < 1 µM | GI50 (HOP-92): < 1 µM | GI50 (CCRF-CEM): < 1 µM | GI50 (NCI-H460 [12]): < 1 µM | GI50 (ACHN): < 1 µM | GI50 (MCF7): < 1 µM | Activity (DNA [6]): 47% | GI50 (DU-145): < 1 µM | GI50 (UACC-62): < 1 µM | GI50 (M14): < 1 µM | GI50 (A549 [13]): < 1 µM | GI50 (SF-539): < 1 µM | GI50 (SF-268): < 1 µM | GI50 (SNB-75): < 1 µM | GI50 (RXF 393): < 1 µM | GI50 (CAKI-1 [14]): < 1 µM | GI50 (786-0): < 1 µM | GI50 (MOLT-4): < 1 µM | GI50 (UO-31): < 1 µM | GI50 (SR [15]): < 1 µM | GI50 (NCI-H522): < 1 µM | GI50 (LOX IMVI): < 1 µM | GI50 (MDA-MB-468): < 1 µM | GI50 (HL-60(TB)): < 1 µM

COc1cccc2c1C(=O)c1c(O)c3c(c(O)c1C2=O)C[C@@](O)(C(=O)CO)C[C@@H]3O[C@H]1C[C@H](N)[C@H](O)[C@H](C)O1 [DOXORUBICIN]
Activity (HeLa [16]): 20%

CC1(C)OB(c2ccc(COC(=O)ONC(=O)CCCCCCC(=O)Nc3ccccc3)cc2)OC1(C)C
EC50 [17]: > 1 µM | Activity (A549 [11]): 80%

CCCCC/C=C\C/C=C\CCCCCCCC(=O)OCCOC(=O)CSCC(=O)OC(C(=O)OC1C[C@@]2(O)[C@@H](OC(=O)c3ccccc3)[C@@H]3[C@]4(OC(C)=O)CO[C@@H]4C[C@H](O)[C@@]3(C)C(=O)[C@H](OC(C)=O)C(=C1C)C2(C)C)C(NC(=O)c1ccccc1)c1ccccc1 (stereo partly drawn)
IC50 (4T1): 0.127 µM | IC50 (A549 [13]): 0.176 µM
